Results on 6 compounds are retold here after PMC6270338, “Diterpenylquinone Hybrids: Synthesis and Assessment of Gastroprotective Mechanisms of Action in Human Cells” (Molecules, 2013).

Molecules are shown by their SMILES.

The subject of series [1] is AGS cells. The series is described as follows: Sodium taurocholate (NaT)-induced damage to AGS cells. The format is cell-based, human. The conditions noted are these: 60 min pre-treatment, then 10 mM NaT 30 min. Here is the method:
The effect of sodium taurocholate (NaT) on cell viability was determined according to [15]. […] Then, 10 mM NaT was added to all wells for 30 min. Untreated cells were used as controls. […] After incubation, the NRU assay was carried out.

Series [2] in a line: Cytotoxicity, neutral red uptake assay, MRC-5. The series is classed as cell-based. To be noted: human, MRC-5 lung fibroblasts, confluent monolayer, confluent MRC-5, 24 h, read-out: IC50 ± SD, cytotoxicity MRC-5. The procedure: (§1) Human lung fibroblasts MRC-5 (ATCC CCL-171) were grown in minimum essential Eagle medium (MEM) with Earles’s salts and 2 mM L-glutamine (Sigma-Aldrich Co.). Human epithelial gastric cells AGS (ATCC CRL-1739) were grown in Ham F-12 medium containing 1 mM L-glutamine. Both media were supplemented with 1.5 g/L sodium bicarbonate (Sigma-Aldrich Co.), 10% heat-inactivated fetal bovine serum (FBS), 100 IU/mL penicillin and 100 µg/mL streptomycin.Both cell lines were grown as monolayers in a humidified incubator with 5% CO2 in air at 37 °C. Culture media, antibiotics and FBS were obtained from Invitrogen Corp.
(§2) Cytotoxicity values were required as a reference to determine the working concentrations in the subsequent experiments. Briefly, confluent cultures of MRC-5 and AGS cells were treated during 24 h with medium containing the compounds at concentrations ranging from 0 up to 1,000 µM. The products were first dissolved in DMSO (1% final concentration) and then in the corresponding culture medium supplemented with 2% FBS. Untreated cells were used as controls. Cell viability was determined at the end of the incubation by means of the neutral red uptake (NRU) assay. Lansoprazole (Sigma-Aldrich Co., min. 98% by TLC) was used as reference compound.

In series [3] the test system is AGS cells. Nature of the series: Prostaglandin E2 (PGE2) content of AGS cells. The format is cell-based, human. The conditions noted are these: 1 h; for PGE2: post-confluent AGS, control 52 ± 5. Here is the method:
One day after confluence, AGS cells were treated for 1 h with the compounds at 1/2 and 1/4 of the respective IC50 values. A control with medium only was included. Indomethacin (100 μM) was used as standard inhibitor of prostaglandin synthesis (Sigma-Aldrich Co., min. 99% by TLC). After incubation, PGE2 content was determined by means of a specific enzyme immunoassay kit (R & D Systems KGE004B, Minneapolis, MN, USA) and values were calculated according to the manufacturer instructions. Results are expressed as pg/well.

Series [4] is described as follows: Cytotoxicity, neutral red uptake assay, AGS. The series is classed as cell-based. The conditions noted are these: human, AGS gastric epithelial cells, confluent monolayer, read-out: IC50 ± SD, cytotoxicity AGS. The procedure:
as §1, §2

Series [5] relates to HCl-EtOH-induced gastric lesions. On the set-up: method as in PMID 21996716. To be noted: mice, orally, single dose of 5 mg/kg; cited from earlier work.
Series [6] has as its system AGS cells. The series is described as follows: Cellular reduced glutathione (GSH) content of AGS cells. The series is classed as cell-based, human. The conditions noted are these: 4 h; for GSH: post-confluent AGS, control 13.6 ± 0.7. Here is the method:
Untreated cells were used as controls. […] After incubation, the GSH content was determined using a colorimetric kit (BioAssays Systems, Hayward, CA, USA). Results are expressed as nanomol of soluble reduced sulfhydryls/10^6 cells.

Series [7] deals with human erythrocyte membranes. The series is described as follows: Inhibition of lipoperoxidation in erythrocyte membranes. The format is biochemical.
Series [8] relates to human erythrocyte membranes. Described as above. The series is classed as biochemical. The conditions noted are these: at 100 µg/mL. Here is the method:
The inhibition of lipid peroxidation was determined using human erythrocyte membranes. The compounds were tested at 100 µg/mL.

Regarding `CC1=C(CC[C@@H](C)CC(=O)OC2=C(CCC(C)C)C(=O)c3ccccc3C2=O)[C@@]2(C)CCC[C@](C)(C(=O)O)C2CC1` (some centres unmarked) [Compound 21, Dihydroprenyl lapachoyl Δ8(9) junicedrate], the “reduction in cell viability, NaT-induced damage” value is 25% with AGS cells [1] (35 µM), 27% with AGS cells [1] (70 µM) and 30% in the series on AGS cells [1] (139 µM). Further, the IC50 (commonly the concentration needed to halve the response being measured) at 24 h in series [2] was 601 ± 26 µM; in series [4], 278 ± 14 µM. Also, the fold induction at 85 µM in the series with AGS cells [3] (Homo sapiens, AGS, 85 µM, read-out: increase in PGE2 content) was 3.1. The compound further gave a PGE2 in the series with AGS cells [3] (85 µM) of 162 ± 18 pg/mL. The “gastroprotective effect in vivo” value in series [5] is reported as “significant activity”. In addition, the activation at 70 µM in the series with AGS cells [6] (Homo sapiens, AGS, 70 µM, read-out: increase of GSH content compared to untreated controls) turned out to be 33%. For the same compound, the GSH is listed as 13.3 ± 0.7 nmol/10^6 cells with AGS cells [6] (35 µM) and “* 18.1 ± 1.1 nmol/10^6 cells” in the series on AGS cells [6] (70 µM).
On to `C=C1CCC2[C@](C)(CCC[C@]2(C)C(=O)OC)[C@H]1CC[C@@H](C)CC(=O)OC1=C(CCC(C)C)C(=O)c2ccccc2C1=O` (some centres unmarked) [Compound 10, Dihydroprenyl lapachoyl junicedrate methyl ester], for which the values for the IC50 at 24 h in series [2] and in series [4] were more than 1000 µM and 659 ± 42 µM, respectively. The fold induction at 162 µM in the series with AGS cells [3] (Homo sapiens, AGS, 162 µM, read-out: increase in PGE2 content) was 5.9. Besides, the fold induction at 323 µM in the series on AGS cells [3] (Homo sapiens, AGS, 323 µM, read-out: increase in PGE2 content) amounted to 8.9. Also, the PGE2 with AGS cells [3] (162 µM) is recorded as 306 ± 32 pg/mL; in the series with AGS cells [3] (323 µM), 465 ± 39 pg/mL. Besides, the “IC50, inhibition of the lipoperoxidation” value in series [7] was “IC50 99.4 ± 9.1 µg/mL”. Besides, the “gastroprotective effect in vivo” value in series [5] is “significant activity”. Besides, the GSH in the series on AGS cells [6] (83 µM) is recorded as 13.4 ± 0.7 nmol/10^6 cells; in the series on AGS cells [6] (165 µM) it was 13.0 ± 0.7 nmol/10^6 cells.
As to `COC(=O)[C@@]1(C)CCC[C@]2(C)C(CC[C@@H](C)CC(=O)OC3=C(CC=C(C)C)C(=O)c4ccccc4C3=O)=C(C)CCC12` (some centres unmarked) [Compound 20, Lapachoyl Δ8(9) junicedrate methyl ester], the IC50 at 24 h in series [2] was 483 ± 31 µM; in series [4] it was 321 ± 24 µM. The “IC50, inhibition of the lipoperoxidation” value in series [7] is listed as “IC50 58.1 ± 4.1 µg/mL”. The “gastroprotective effect in vivo” value in series [5] is recorded as “active”. Moreover, the activation at 40 µM with AGS cells [6] (Homo sapiens, AGS, 40 µM, read-out: increase of GSH content compared to untreated controls) came out at 19%. In addition, the activation at 80 µM in the series with AGS cells [6] (Homo sapiens, AGS, 80 µM, read-out: increase of GSH content compared to untreated controls) worked out at 13%. In addition, the values for the GSH result in the series on AGS cells [6] (40 µM) and in the series with AGS cells [6] (80 µM) were “* 16.2 ± 1.0 nmol/10^6 cells” and “* 15.4 ± 1.3 nmol/10^6 cells”, respectively.
Consider `COC(=O)[C@@]1(C)CCC[C@]2(C)C(CC[C@@H](C)CC(=O)OC3=C(CCC(C)C)C(=O)c4ccccc4C3=O)=C(C)CCC12` (some centres unmarked) [Compound 22, Dihydroprenyl lapachoyl Δ8(9) junicedrate methyl ester], for which, in series [8], the “% Inhibition of the lipoperoxidation” value turned out to be 46%. Moreover, the IC50 at 24 h in series [2] was 848 ± 51 µM; in series [4] it was 340 ± 20 µM. Besides, the fold induction at 170 µM with AGS cells [3] (Homo sapiens, AGS, 170 µM, read-out: increase in PGE2 content) is 2.2. This compound registered a PGE2 in the series on AGS cells [3] (170 µM) of 114 ± 11 pg/mL. Moreover, the “gastroprotective effect in vivo” value in series [5] is given as “significant activity”. The GSH with AGS cells [6] (43 µM) was determined as 13.6 ± 0.9 nmol/10^6 cells; with AGS cells [6] (85 µM), 14.2 ± 0.6 nmol/10^6 cells.
On to `C=C1CCC2[C@](C)(CCC[C@]2(C)C(=O)O)[C@H]1CC[C@@H](C)CC(=O)OC1=C(CCC(C)C)C(=O)c2ccccc2C1=O` (some centres unmarked) [Compound 9, Dihydroprenyl lapachol junicedrate], for which the IC50 at 24 h in series [2] was 449 ± 27 µM; in series [4], 49 ± 10 µM. In the series with AGS cells [3] (Homo sapiens, AGS, 12.5 µM, read-out: increase in PGE2 content), the fold induction at 12.5 µM came out at 5.9. The compound further yielded a PGE2 in the series with AGS cells [3] (12.5 µM) of 309 ± 29 pg/mL. In series [7], the “IC50, inhibition of the lipoperoxidation” value is on record as “IC50 40.1 ± 5.3 µg/mL”. Further, the “gastroprotective effect in vivo” value in series [5] was “significant activity”. For the same compound, the activation at 6 µM in the series with AGS cells [6] (Homo sapiens, AGS, 6 µM, read-out: increase of GSH content compared to untreated controls) turned out to be 15%. The activation at 12 µM in the series with AGS cells [6] (Homo sapiens, AGS, 12 µM, read-out: increase of GSH content compared to untreated controls) amounted to 16%. Besides, the GSH entry is “* 15.6 ± 0.6 nmol/10^6 cells” in the series with AGS cells [6] (6 µM) and “* 15.8 ± 0.6 nmol/10^6 cells” in the series on AGS cells [6] (12 µM).
Turning to `C=C1CCC2[C@](C)(CCC[C@]2(C)C(=O)OC)[C@H]1CC[C@@H](C)CC(=O)OC1=C(CC=C(C)C)C(=O)c2ccccc2C1=O` (some centres unmarked) [Compound 8, Lapachoyl junicedrate methyl ester], the IC50 at 24 h in series [2] and in series [4] was more than 1000 µM in each case. The fold induction at 250 µM in the series on AGS cells [3] (Homo sapiens, AGS, 250 µM, read-out: increase in PGE2 content) is 5.2. For the same compound, in the series with AGS cells [3] (Homo sapiens, AGS, 500 µM, read-out: increase in PGE2 content), the fold induction at 500 µM came out at 15.2. For the same compound, the PGE2 came out at 272 ± 30 pg/mL in the series on AGS cells [3] (250 µM) and 787 ± 56 pg/mL with AGS cells [3] (500 µM). Moreover, in series [7], the “IC50, inhibition of the lipoperoxidation” value was “IC50 81.4 ± 11.0 µg/mL”. Further, the “gastroprotective effect in vivo” value in series [5] is given as “active”. The activation at 125 µM in the series on AGS cells [6] (Homo sapiens, AGS, 125 µM, read-out: increase of GSH content compared to untreated controls) stood at 19%. Besides, the activation at 250 µM in the series on AGS cells [6] (Homo sapiens, AGS, 250 µM, read-out: increase of GSH content compared to untreated controls) was 24%. In addition, the GSH result with AGS cells [6] (125 µM) is on record as “* 16.2 ± 0.6 nmol/10^6 cells”; in the series on AGS cells [6] (250 µM), “* 16.8 ± 0.9 nmol/10^6 cells”.
